The structures appear in SMILES notation. Active and inactive are the calls of the source. Where only a bound is given, the exact number is not on record here.

The target of experiment [1] is Megakaryocyte-associated tyrosine-protein kinase (Homo sapiens, UniProt P42679). It is filed as functional.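 Further: affinity measured as one member of a kinase panel (Navigating the Kinome) against MATK.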
The target of experiment [2] is cGMP-dependent protein kinase 1 (Homo sapiens, UniProt Q13976). It is filed as functional.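 Further: value from a kinome panel screen with PRKG1 as the panel member.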
The target of experiment [3] is Ribosomal protein S6 kinase beta-1 (Homo sapiens, UniProt P23443). The class given is functional.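 Further: measured as one member of a kinome-wide profiling panel.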
In experiment [4] the target is Mitogen-activated protein kinase kinase kinase kinase 2 (Homo sapiens, UniProt Q12851). It is filed as functional.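 Further: measured as one member of a kinome-wide kinase panel, with MAP4K2 as the panel entry.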
In experiment [5] the target is Ephrin type-A receptor 2 (Homo sapiens, UniProt P29317). The class given is functional.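 Further: EPHA2 tested as one member of a kinome-wide kinase panel.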
For experiment [6], the target named is Focal adhesion kinase 1 (Homo sapiens, UniProt Q05397). The class given is functional.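 Further: measured as one member of a kinome panel.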
Experiment [7] deals with Cyclin-dependent kinase 1 (Homo sapiens, UniProt P06493). It is filed as functional.
For experiment [8], the target named is Lymphokine-activated killer T-cell-originated protein kinase (Homo sapiens, UniProt Q96KB5). It is filed as functional.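 Further: value comes from a kinase panel screen in which TOPK was one of the panel members.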
Experiment [9] deals with Mitogen-activated protein kinase kinase kinase kinase 4 (Homo sapiens, UniProt O95819). The class given is functional.
The target of experiment [10] is Serine/threonine-protein kinase BRSK1 (Homo sapiens, UniProt Q8TDC3). The class given is functional.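 Further: measured within a kinome-wide kinase panel, with the target listed as KIAA1811.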
A short description of experiment [11]: cells. The class given is functional.
The target in experiment [12] is T1, Bcl-2-like protein 10 (Homo sapiens, UniProt Q9HD36).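 Further: fluorescence polarization from a fluorescein-labelled TR3 peptide binding purified Bcl-B.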
T1 sequence (Q9HD36 whole entry): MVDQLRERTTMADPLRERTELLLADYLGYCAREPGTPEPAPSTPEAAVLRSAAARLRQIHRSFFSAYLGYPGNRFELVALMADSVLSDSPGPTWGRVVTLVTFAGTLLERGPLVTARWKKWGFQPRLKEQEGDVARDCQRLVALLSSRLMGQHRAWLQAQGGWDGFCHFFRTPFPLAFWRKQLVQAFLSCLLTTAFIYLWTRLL
Kind of experiment: displacers of TR3 peptide from Bcl-B, primary screen, selectivity assay for Bfl-1 inhibitor project, biochemical, fluorescence polarization, FITC-TR3 peptide (AID 748). (In general: In fluorescence polarisation assays a small probe gives low polarisation when free and higher when bound to something large.)

In experiment [13] the target is T2, Sentrin-specific protease 6 (Homo sapiens, UniProt Q9GZR1).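 Further: Luminescence-based dose-response confirmatory assay of SENP6 inhibition, following up an ultra-high-throughput screen.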
T2 sequence (Q9GZR1 whole entry): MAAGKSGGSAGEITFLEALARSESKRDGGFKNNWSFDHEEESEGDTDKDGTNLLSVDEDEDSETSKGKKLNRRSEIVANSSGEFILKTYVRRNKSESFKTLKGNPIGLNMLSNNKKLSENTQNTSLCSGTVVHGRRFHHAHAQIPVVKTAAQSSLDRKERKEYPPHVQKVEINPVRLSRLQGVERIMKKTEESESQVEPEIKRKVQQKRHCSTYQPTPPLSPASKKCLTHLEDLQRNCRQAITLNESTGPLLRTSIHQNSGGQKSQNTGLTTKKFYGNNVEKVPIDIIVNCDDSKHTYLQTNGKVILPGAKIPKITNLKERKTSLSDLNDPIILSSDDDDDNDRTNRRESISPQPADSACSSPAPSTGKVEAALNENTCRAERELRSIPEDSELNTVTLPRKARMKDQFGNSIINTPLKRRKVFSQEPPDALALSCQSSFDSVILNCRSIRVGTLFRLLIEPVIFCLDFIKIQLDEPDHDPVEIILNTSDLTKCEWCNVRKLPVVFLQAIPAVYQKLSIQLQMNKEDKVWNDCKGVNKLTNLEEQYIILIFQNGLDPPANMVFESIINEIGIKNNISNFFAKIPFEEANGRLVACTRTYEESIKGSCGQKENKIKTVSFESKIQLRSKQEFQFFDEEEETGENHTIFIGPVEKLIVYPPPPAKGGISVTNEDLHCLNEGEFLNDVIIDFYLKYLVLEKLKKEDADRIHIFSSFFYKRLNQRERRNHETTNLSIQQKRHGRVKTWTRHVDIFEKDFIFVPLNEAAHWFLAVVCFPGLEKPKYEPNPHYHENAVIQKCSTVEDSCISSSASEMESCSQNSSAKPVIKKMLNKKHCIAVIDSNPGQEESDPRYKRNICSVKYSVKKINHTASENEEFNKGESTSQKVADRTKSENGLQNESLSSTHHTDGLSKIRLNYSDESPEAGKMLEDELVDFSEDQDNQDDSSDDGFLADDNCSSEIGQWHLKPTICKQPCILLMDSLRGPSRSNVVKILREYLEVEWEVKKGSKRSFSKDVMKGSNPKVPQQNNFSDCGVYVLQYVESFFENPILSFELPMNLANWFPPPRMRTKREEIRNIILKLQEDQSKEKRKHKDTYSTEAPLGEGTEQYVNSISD
It is filed as functional.

Chain of cGMP-dependent protein kinase 1 (Q13976 whole entry): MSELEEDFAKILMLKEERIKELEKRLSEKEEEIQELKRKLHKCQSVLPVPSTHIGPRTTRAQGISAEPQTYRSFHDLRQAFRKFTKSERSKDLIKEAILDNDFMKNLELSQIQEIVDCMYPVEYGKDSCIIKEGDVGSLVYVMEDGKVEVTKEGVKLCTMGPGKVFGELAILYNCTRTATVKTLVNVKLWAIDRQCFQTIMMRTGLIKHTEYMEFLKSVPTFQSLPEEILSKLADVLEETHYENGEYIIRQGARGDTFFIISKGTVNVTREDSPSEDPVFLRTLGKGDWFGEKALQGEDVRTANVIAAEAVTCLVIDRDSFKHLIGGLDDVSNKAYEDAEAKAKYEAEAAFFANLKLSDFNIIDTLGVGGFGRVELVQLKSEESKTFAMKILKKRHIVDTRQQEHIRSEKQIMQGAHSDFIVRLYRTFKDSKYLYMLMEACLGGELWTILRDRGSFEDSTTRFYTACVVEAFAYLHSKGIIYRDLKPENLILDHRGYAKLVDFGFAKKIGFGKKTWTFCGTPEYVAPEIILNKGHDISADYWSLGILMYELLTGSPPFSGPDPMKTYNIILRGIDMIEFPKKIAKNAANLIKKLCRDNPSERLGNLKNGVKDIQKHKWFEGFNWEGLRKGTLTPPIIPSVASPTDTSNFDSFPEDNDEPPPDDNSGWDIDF
Chain of Focal adhesion kinase 1 (Q05397 whole entry): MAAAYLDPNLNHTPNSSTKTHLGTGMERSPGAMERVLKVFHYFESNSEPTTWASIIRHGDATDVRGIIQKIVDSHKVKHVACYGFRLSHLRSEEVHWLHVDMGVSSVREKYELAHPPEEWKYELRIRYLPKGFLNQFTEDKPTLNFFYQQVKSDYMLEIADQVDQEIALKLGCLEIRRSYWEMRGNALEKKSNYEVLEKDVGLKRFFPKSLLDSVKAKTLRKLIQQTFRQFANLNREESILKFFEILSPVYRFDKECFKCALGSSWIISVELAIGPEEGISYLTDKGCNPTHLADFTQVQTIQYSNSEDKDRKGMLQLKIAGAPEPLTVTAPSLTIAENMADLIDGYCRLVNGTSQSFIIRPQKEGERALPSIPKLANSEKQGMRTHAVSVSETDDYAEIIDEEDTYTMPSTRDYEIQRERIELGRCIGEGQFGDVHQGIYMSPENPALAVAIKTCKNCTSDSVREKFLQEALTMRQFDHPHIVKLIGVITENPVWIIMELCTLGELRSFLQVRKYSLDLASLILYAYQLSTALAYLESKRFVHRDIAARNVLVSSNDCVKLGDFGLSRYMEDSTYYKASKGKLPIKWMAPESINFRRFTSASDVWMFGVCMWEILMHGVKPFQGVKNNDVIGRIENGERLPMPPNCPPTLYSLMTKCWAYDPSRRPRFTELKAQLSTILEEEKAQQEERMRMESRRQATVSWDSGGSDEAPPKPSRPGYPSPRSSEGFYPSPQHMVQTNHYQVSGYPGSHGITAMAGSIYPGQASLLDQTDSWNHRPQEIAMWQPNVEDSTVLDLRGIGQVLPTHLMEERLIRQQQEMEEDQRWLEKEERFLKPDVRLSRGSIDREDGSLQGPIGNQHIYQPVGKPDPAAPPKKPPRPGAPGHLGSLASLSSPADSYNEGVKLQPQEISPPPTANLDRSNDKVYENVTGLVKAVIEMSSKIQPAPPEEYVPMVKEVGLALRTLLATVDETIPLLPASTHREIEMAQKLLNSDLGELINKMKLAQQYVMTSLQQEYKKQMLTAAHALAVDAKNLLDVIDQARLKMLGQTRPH
Chain of Serine/threonine-protein kinase BRSK1 (Q8TDC3 whole entry): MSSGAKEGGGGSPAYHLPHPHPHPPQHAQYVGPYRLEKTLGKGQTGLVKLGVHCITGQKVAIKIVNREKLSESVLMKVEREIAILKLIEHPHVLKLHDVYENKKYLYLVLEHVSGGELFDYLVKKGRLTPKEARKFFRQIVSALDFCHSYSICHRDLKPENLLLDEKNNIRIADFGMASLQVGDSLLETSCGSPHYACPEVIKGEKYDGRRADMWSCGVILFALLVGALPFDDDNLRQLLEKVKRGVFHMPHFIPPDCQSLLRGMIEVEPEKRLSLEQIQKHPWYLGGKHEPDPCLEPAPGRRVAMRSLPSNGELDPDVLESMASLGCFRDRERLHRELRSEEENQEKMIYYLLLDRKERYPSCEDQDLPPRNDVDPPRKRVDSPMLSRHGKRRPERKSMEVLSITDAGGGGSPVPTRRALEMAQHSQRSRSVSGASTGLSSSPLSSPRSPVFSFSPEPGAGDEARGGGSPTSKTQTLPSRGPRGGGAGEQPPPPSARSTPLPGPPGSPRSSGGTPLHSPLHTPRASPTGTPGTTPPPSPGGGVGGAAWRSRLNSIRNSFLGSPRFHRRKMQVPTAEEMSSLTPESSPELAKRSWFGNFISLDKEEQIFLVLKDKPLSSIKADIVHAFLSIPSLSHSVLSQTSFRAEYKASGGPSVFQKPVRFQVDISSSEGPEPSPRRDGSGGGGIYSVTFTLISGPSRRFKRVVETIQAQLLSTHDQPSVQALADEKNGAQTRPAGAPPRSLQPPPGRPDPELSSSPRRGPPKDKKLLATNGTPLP
Chain of Cyclin-dependent kinase 1 (P06493 whole entry): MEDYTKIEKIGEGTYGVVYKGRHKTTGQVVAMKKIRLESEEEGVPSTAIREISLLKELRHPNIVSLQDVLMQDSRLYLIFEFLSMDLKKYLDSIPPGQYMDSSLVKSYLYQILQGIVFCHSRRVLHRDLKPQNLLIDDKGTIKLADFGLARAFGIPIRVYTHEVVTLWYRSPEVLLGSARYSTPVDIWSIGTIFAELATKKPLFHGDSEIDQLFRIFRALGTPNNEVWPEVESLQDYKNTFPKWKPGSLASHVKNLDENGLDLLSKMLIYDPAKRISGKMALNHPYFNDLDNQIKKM
Chain of Ribosomal protein S6 kinase beta-1 (P23443 whole entry): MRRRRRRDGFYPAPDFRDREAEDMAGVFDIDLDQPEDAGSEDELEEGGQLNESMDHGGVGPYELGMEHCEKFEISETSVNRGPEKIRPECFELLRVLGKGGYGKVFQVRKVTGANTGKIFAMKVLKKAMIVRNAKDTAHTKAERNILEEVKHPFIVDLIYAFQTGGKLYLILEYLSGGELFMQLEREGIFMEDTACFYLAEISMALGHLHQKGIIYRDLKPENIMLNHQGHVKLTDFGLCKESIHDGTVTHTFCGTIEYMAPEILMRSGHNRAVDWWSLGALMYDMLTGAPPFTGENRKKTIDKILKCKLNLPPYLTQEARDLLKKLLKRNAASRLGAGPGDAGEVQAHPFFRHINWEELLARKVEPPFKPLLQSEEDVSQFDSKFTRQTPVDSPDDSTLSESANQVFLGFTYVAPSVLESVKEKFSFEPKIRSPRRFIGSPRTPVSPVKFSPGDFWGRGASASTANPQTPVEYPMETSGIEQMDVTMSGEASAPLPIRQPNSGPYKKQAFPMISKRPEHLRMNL
Chain of Lymphokine-activated killer T-cell-originated protein kinase (Q96KB5 whole entry): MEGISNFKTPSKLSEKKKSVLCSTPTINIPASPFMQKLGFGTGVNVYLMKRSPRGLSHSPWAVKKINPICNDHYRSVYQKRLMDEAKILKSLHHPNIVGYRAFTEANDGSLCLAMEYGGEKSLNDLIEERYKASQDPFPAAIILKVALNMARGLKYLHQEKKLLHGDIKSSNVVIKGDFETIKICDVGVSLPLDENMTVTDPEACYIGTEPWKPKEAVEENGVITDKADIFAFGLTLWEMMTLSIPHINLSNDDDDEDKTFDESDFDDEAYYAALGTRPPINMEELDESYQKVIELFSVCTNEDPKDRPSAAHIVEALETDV
Chain of Mitogen-activated protein kinase kinase kinase kinase 2 (Q12851 whole entry): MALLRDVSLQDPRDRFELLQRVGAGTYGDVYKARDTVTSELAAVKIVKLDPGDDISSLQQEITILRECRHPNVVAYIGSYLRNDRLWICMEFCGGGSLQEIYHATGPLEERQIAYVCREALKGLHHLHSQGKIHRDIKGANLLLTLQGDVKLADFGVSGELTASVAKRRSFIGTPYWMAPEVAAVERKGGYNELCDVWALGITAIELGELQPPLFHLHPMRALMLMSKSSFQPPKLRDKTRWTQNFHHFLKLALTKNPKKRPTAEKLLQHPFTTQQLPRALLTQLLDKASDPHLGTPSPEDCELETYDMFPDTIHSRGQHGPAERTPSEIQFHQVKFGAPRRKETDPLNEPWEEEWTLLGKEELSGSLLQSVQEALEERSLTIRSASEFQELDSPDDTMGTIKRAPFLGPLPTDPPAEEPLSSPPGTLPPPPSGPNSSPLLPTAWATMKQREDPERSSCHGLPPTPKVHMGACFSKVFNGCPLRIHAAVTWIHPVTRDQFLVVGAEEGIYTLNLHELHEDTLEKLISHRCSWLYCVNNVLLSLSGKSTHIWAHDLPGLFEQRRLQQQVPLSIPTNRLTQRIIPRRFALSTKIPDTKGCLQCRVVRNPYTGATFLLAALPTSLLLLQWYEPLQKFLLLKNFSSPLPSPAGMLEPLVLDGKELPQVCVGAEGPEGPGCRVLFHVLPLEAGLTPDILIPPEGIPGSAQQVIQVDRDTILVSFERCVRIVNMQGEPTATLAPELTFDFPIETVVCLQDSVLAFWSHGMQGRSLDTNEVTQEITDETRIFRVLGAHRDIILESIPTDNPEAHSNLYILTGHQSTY
Chain of Megakaryocyte-associated tyrosine-protein kinase (P42679 whole entry): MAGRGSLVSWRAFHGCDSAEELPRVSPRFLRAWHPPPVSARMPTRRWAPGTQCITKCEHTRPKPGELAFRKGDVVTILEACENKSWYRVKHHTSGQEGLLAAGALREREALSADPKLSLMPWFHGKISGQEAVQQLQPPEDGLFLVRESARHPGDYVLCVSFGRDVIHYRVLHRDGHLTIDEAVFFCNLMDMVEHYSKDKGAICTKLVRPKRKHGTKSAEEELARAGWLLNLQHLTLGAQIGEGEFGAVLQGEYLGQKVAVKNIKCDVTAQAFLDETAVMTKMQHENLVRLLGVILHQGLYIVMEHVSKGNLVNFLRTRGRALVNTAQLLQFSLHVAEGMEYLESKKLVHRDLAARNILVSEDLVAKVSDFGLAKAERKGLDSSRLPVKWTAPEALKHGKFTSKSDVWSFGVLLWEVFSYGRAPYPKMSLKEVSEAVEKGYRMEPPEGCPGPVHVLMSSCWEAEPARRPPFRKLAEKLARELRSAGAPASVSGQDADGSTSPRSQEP

As a reminder, the Ki is a measure of affinity in units of concentration, obtained from inhibition or displacement. `Cc1cccc(NC(=O)Nc2ccc3c(c2)CCc2sc4ncnc(N)c4c2-3)c1`: the Ki is > 2000 nM (inactive) in [1]; > 2000 nM (inactive) in experiment [2]; 39.8 nM (active) in [3]; 2000 nM (active) in [4]; 31.6 nM (active) in [5]; 631 nM (active) in experiment [6]. Besides, the Ki in experiment [7] is > 7940 nM (inactive); in [8], 3160 nM (active); in experiment [9], 2510 nM (active); in experiment [10] it was 3160 nM (active).
A word on the IC50: it is the concentration needed to halve the response being measured. As for `Cc1ccc(-n2sc3ccccc3c2=O)cc1`, the IC50 in experiment [11] was 22400 nM (active).
In the case of `N/C(=N\N=C/c1ccc(-c2ccc(O)c(C(=O)O)c2)o1)N[N+](=O)[O-]`, the IC50 in experiment [12] was 2820 nM (active).
For `CC(=O)N(/N=C1\Sc2ccccc2C1=O)c1ccccc1C`, the IC50 in experiment [13] is 1910 nM (active).

Source of the values: ChEMBL document CHEMBL1201862, “PubChem BioAssay data set” (2004).
